What was measured:
Assay in all cases: MIC, NCCLS broth microdilution
[1] = tested on: E. faecium ATCC 51559 (vancomycin resistant strain, VRE); type: cell-based, Enterococcus faecium; conditions: B = E. faecium ATCC 51559
Text: (§1) In vitro biological activity data were collected for a variety of microorganisms, including Bacillus cereus (ATCC 11778), Staphylococcus aureus (ATCC 27660 (a methicillin resistant strain (MRSA), ATCC 33591 and ATCC 43300); ATCC 13709, a methicillin sensitive strain (MSSA)); Streptococcus pneumoniae (ATCC 51422, a penicillin resistant strain (PRSP)), Enterococcus faecium (ATCC 51559, a vancomycin resistant strain (VRE)), and Staphylococcus epidermidis (ATCC 700586, a methycillin resistant strain (MRSE)). Additionally, antifungal activity data were collected for Candida albicans (ATCC 38247). Minimal inhibition concentrations (MIC's) were determined using the National Committee for Clinical Laboratory Standards (NCCLS) broth microdilution assay in microtiter plates, as set forth in: (1) the guidelines of the National Committee for Clinical Laboratory Standards (NCCLS) Document M7-A4 (NCCLS, 1997); (2) the guidelines of the National Committee for Clinical Laboratory Standards (NCCLS) Document M11-A4 (NCCLS, 1997); and (3) the guidelines and reference method of the National Committee for Clinical Laboratory Standards (NCCLS) Document M27-T (NCCLS, 1995). For antifungal essays, the method recommended in Murray, PR., 1995 Manual of Clinical Microbiology (ASM Press, Washington, D.C.), was employed.

B. Cereus ATCC 11778 = type: cell-based, Bacillus cereus; conditions: A = B. Cereus ATCC 11778
Text: as §1

[2] = tested on: S. pneumoniae ATCC 51422 (penicillin resistant strain, PRSP); type: cell-based, Streptococcus pneumoniae; conditions: H = S. pneumoniae ATCC 51422
Text: as §1

[3] = tested on: S. aureus ATCC 13709 (methicillin sensitive strain, MSSA); type: cell-based, Staphylococcus aureus; conditions: C = S. aureus ATCC 13709
Text: as §1

S. aureus ATCC 33591 = type: cell-based, Staphylococcus aureus; conditions: E = S. aureus ATCC 33591
Text: as §1

[4] = tested on: S. aureus ATCC 27660 (methicillin resistant strain, MRSA); type: cell-based, Staphylococcus aureus; conditions: D = S. aureus ATCC 27660
Text: as §1

[5] = tested on: S. epidermidis ATCC 700586 (methycillin resistant strain, MRSE); type: cell-based, Staphylococcus epidermidis; conditions: G = S. epidermidis ATCC 700586
Text: as §1

## Cn1cc(NC(=O)c2cc(NC(=O)c3cc(NC(=O)c4sc5cc6c(cc5c4Cl)OCO6)cn3C)cn2C)cc1C(=O)NCCN1CCOCC1 [Ib-20d]
[1]
  Minimum Inhibitory Concentration (MIC): +++ (+++ = MIC ≦ 4)
B. Cereus ATCC 11778
  Minimum Inhibitory Concentration (MIC): +++ (+++ = MIC ≦ 4)
[2]
  Minimum Inhibitory Concentration (MIC): +++ (+++ = MIC ≦ 4)
[3]
  Minimum Inhibitory Concentration (MIC): +++ (+++ = MIC ≦ 4)
S. aureus ATCC 33591
  Minimum Inhibitory Concentration (MIC): +++ (+++ = MIC ≦ 4)
[4]
  Minimum Inhibitory Concentration (MIC): +++ (+++ = MIC ≦ 4)
[5]
  Minimum Inhibitory Concentration (MIC): +++ (+++ = MIC ≦ 4)

## Cn1cc(NC(=O)c2cc(NC(=O)c3sc4cc5c(cc4c3Cl)OCO5)cn2C)cc1C(=O)NCCN1CCOCC1 [Ib-20e]
[1]
  Minimum Inhibitory Concentration (MIC): +++ (+++ = MIC ≦ 4)
B. Cereus ATCC 11778
  Minimum Inhibitory Concentration (MIC): +++ (+++ = MIC ≦ 4)
[2]
  Minimum Inhibitory Concentration (MIC): +++ (+++ = MIC ≦ 4)
[3]
  Minimum Inhibitory Concentration (MIC): +++ (+++ = MIC ≦ 4)
S. aureus ATCC 33591
  Minimum Inhibitory Concentration (MIC): +++ (+++ = MIC ≦ 4)
[4]
  Minimum Inhibitory Concentration (MIC): +++ (+++ = MIC ≦ 4)
[5]
  Minimum Inhibitory Concentration (MIC): +++ (+++ = MIC ≦ 4)

## Cn1cc(NC(=O)c2cc(NC(=O)c3cc(NC(=O)c4sc5cc6c(cc5c4Cl)OCO6)cn3C)cn2C)cc1C(=O)NCCN1CCCC1 [Ib-20g]
B. Cereus ATCC 11778
  Minimum Inhibitory Concentration (MIC): +++ (+++ = MIC ≦ 4)
[2]
  Minimum Inhibitory Concentration (MIC): +++ (+++ = MIC ≦ 4)
[3]
  Minimum Inhibitory Concentration (MIC): +++ (+++ = MIC ≦ 4)
S. aureus ATCC 33591
  Minimum Inhibitory Concentration (MIC): +++ (+++ = MIC ≦ 4)
[4]
  Minimum Inhibitory Concentration (MIC): +++ (+++ = MIC ≦ 4)
[5]
  Minimum Inhibitory Concentration (MIC): +++ (+++ = MIC ≦ 4)

## CN1CCCC1CCNC(=O)c1cc(NC(=O)c2cc(NC(=O)c3cc(NC(=O)c4sc5cc6c(cc5c4Cl)OCO6)cn3C)cn2C)cn1C (stereo not drawn) [Ib-20m]
[1]
  Minimum Inhibitory Concentration (MIC): +++ (+++ = MIC ≦ 4)
B. Cereus ATCC 11778
  Minimum Inhibitory Concentration (MIC): +++ (+++ = MIC ≦ 4)
[2]
  Minimum Inhibitory Concentration (MIC): +++ (+++ = MIC ≦ 4)
[3]
  Minimum Inhibitory Concentration (MIC): +++ (+++ = MIC ≦ 4)
S. aureus ATCC 33591
  Minimum Inhibitory Concentration (MIC): +++ (+++ = MIC ≦ 4)
[4]
  Minimum Inhibitory Concentration (MIC): +++ (+++ = MIC ≦ 4)
[5]
  Minimum Inhibitory Concentration (MIC): +++ (+++ = MIC ≦ 4)

## Cn1cc(NC(=O)c2sc3cc4c(cc3c2Cl)OCO4)cc1C(=O)NCCN1CCCC1 [Ib-20o]
[1]
  Minimum Inhibitory Concentration (MIC): +++ (+++ = MIC ≦ 4)
B. Cereus ATCC 11778
  Minimum Inhibitory Concentration (MIC): +++ (+++ = MIC ≦ 4)
[2]
  Minimum Inhibitory Concentration (MIC): +++ (+++ = MIC ≦ 4)
[3]
  Minimum Inhibitory Concentration (MIC): +++ (+++ = MIC ≦ 4)
S. aureus ATCC 33591
  Minimum Inhibitory Concentration (MIC): +++ (+++ = MIC ≦ 4)
[4]
  Minimum Inhibitory Concentration (MIC): +++ (+++ = MIC ≦ 4)
[5]
  Minimum Inhibitory Concentration (MIC): +++ (+++ = MIC ≦ 4)

## Cn1cc(NC(=O)c2sc3cc4c(cc3c2Cl)OCO4)cc1C(=O)NCCN1CCSCC1 [Ib-20p]
[1]
  Minimum Inhibitory Concentration (MIC): +++ (+++ = MIC ≦ 4)
B. Cereus ATCC 11778
  Minimum Inhibitory Concentration (MIC): +++ (+++ = MIC ≦ 4)
[2]
  Minimum Inhibitory Concentration (MIC): +++ (+++ = MIC ≦ 4)
[3]
  Minimum Inhibitory Concentration (MIC): +++ (+++ = MIC ≦ 4)
S. aureus ATCC 33591
  Minimum Inhibitory Concentration (MIC): +++ (+++ = MIC ≦ 4)
[4]
  Minimum Inhibitory Concentration (MIC): +++ (+++ = MIC ≦ 4)
[5]
  Minimum Inhibitory Concentration (MIC): +++ (+++ = MIC ≦ 4)

## CN1CCN(CCCNC(=O)c2cc(NC(=O)c3sc4cc5c(cc4c3Cl)OCO5)cn2C)CC1 [Ib-20r]
[1]
  Minimum Inhibitory Concentration (MIC): +++ (+++ = MIC ≦ 4)
B. Cereus ATCC 11778
  Minimum Inhibitory Concentration (MIC): +++ (+++ = MIC ≦ 4)
[2]
  Minimum Inhibitory Concentration (MIC): +++ (+++ = MIC ≦ 4)
[3]
  Minimum Inhibitory Concentration (MIC): +++ (+++ = MIC ≦ 4)
S. aureus ATCC 33591
  Minimum Inhibitory Concentration (MIC): +++ (+++ = MIC ≦ 4)
[4]
  Minimum Inhibitory Concentration (MIC): +++ (+++ = MIC ≦ 4)
[5]
  Minimum Inhibitory Concentration (MIC): +++ (+++ = MIC ≦ 4)

## Cn1cc(NC(=O)c2cc3ccccc3cn2)cc1C(=O)Nc1cc(C(=O)Nc2cc(C(=O)NCCN3CCOCC3)n(CCN3CCOCC3)c2)n(C)c1 [Ib-56]
[1]
  Minimum Inhibitory Concentration (MIC): +++ (+++ = MIC ≦ 4)
B. Cereus ATCC 11778
  Minimum Inhibitory Concentration (MIC): >32 µg/mL
[2]
  Minimum Inhibitory Concentration (MIC): +++ (+++ = MIC ≦ 4)
[3]
  Minimum Inhibitory Concentration (MIC): +++ (+++ = MIC ≦ 4)
S. aureus ATCC 33591
  Minimum Inhibitory Concentration (MIC): +++ (+++ = MIC ≦ 4)
[4]
  Minimum Inhibitory Concentration (MIC): +++ (+++ = MIC ≦ 4)
[5]
  Minimum Inhibitory Concentration (MIC): +++ (+++ = MIC ≦ 4)

## Cn1cc(NC(=O)c2cc(NC(=O)c3cc4ccccc4cn3)no2)cc1C(=O)OCCN1CCOCC1 [Ib-61]
[1]
  Minimum Inhibitory Concentration (MIC): +++ (+++ = MIC ≦ 4)
B. Cereus ATCC 11778
  Minimum Inhibitory Concentration (MIC): +++ (+++ = MIC ≦ 4)
[2]
  Minimum Inhibitory Concentration (MIC): +++ (+++ = MIC ≦ 4)
[3]
  Minimum Inhibitory Concentration (MIC): +++ (+++ = MIC ≦ 4)
S. aureus ATCC 33591
  Minimum Inhibitory Concentration (MIC): +++ (+++ = MIC ≦ 4)
[4]
  Minimum Inhibitory Concentration (MIC): +++ (+++ = MIC ≦ 4)
[5]
  Minimum Inhibitory Concentration (MIC): +++ (+++ = MIC ≦ 4)

## Cn1cc(NC(=O)c2cc(NC(=O)c3cc(NC(=O)c4cc5ccccc5cn4)c[nH]3)cn2C)cc1C(=O)NCCN1CCCCC1 [Ib-62]
[1]
  Minimum Inhibitory Concentration (MIC): +++ (+++ = MIC ≦ 4)
B. Cereus ATCC 11778
  Minimum Inhibitory Concentration (MIC): + (+ = MIC from 12 to 32, inclusive)
[2]
  Minimum Inhibitory Concentration (MIC): +++ (+++ = MIC ≦ 4)
[3]
  Minimum Inhibitory Concentration (MIC): +++ (+++ = MIC ≦ 4)
S. aureus ATCC 33591
  Minimum Inhibitory Concentration (MIC): +++ (+++ = MIC ≦ 4)
[4]
  Minimum Inhibitory Concentration (MIC): +++ (+++ = MIC ≦ 4)
[5]
  Minimum Inhibitory Concentration (MIC): +++ (+++ = MIC ≦ 4)

## Cc1cc(NC(=O)c2cc(NC(=O)c3cc(NC(=O)c4cc5ccccc5cn4)cn3C)cn2CCN2CCOCC2)sn1 [Ib-63]
[1]
  Minimum Inhibitory Concentration (MIC): +++ (+++ = MIC ≦ 4)
B. Cereus ATCC 11778
  Minimum Inhibitory Concentration (MIC): +++ (+++ = MIC ≦ 4)
[2]
  Minimum Inhibitory Concentration (MIC): +++ (+++ = MIC ≦ 4)
[3]
  Minimum Inhibitory Concentration (MIC): +++ (+++ = MIC ≦ 4)
S. aureus ATCC 33591
  Minimum Inhibitory Concentration (MIC): +++ (+++ = MIC ≦ 4)
[4]
  Minimum Inhibitory Concentration (MIC): +++ (+++ = MIC ≦ 4)
[5]
  Minimum Inhibitory Concentration (MIC): +++ (+++ = MIC ≦ 4)

## Cc1cc(NC(=O)c2cc(NC(=O)c3cc(NC(=O)c4cc5ccccc5cn4)cn3C)cn2CCN2CCCC2)sn1 [Ib-65]
[1]
  Minimum Inhibitory Concentration (MIC): +++ (+++ = MIC ≦ 4)
B. Cereus ATCC 11778
  Minimum Inhibitory Concentration (MIC): +++ (+++ = MIC ≦ 4)
[2]
  Minimum Inhibitory Concentration (MIC): +++ (+++ = MIC ≦ 4)
[3]
  Minimum Inhibitory Concentration (MIC): +++ (+++ = MIC ≦ 4)
S. aureus ATCC 33591
  Minimum Inhibitory Concentration (MIC): +++ (+++ = MIC ≦ 4)
[4]
  Minimum Inhibitory Concentration (MIC): +++ (+++ = MIC ≦ 4)
[5]
  Minimum Inhibitory Concentration (MIC): +++ (+++ = MIC ≦ 4)

## Cn1cc(NC(=O)c2cc(NC(=O)c3cc(NC(=O)c4cc5ccccc5cn4)c[nH]3)cn2C)cc1C(=O)NCCc1ccncc1 [Ib-76]
[1]
  Minimum Inhibitory Concentration (MIC): +++ (+++ = MIC ≦ 4)
B. Cereus ATCC 11778
  Minimum Inhibitory Concentration (MIC): +++ (+++ = MIC ≦ 4)
[3]
  Minimum Inhibitory Concentration (MIC): +++ (+++ = MIC ≦ 4)
S. aureus ATCC 33591
  Minimum Inhibitory Concentration (MIC): +++ (+++ = MIC ≦ 4)
[4]
  Minimum Inhibitory Concentration (MIC): +++ (+++ = MIC ≦ 4)
[5]
  Minimum Inhibitory Concentration (MIC): +++ (+++ = MIC ≦ 4)

## Cn1cc(NC(=O)c2cc(NC(=O)c3cc(NC(=O)c4cc5ccccc5cn4)c[nH]3)cn2C)cc1C(=O)NCCN1CCC(F)(F)CC1 [Ib-78]
B. Cereus ATCC 11778
  Minimum Inhibitory Concentration (MIC): +++ (+++ = MIC ≦ 4)
[3]
  Minimum Inhibitory Concentration (MIC): +++ (+++ = MIC ≦ 4)
S. aureus ATCC 33591
  Minimum Inhibitory Concentration (MIC): +++ (+++ = MIC ≦ 4)
[4]
  Minimum Inhibitory Concentration (MIC): +++ (+++ = MIC ≦ 4)

Source: patent US20040142971A1, “BENZOTHIOPHENE COMPOUNDS HAVING ANTIINFECTIVE ACTIVITY” (GeneSoft, Inc., priority 2001, published 2004)
